Earlier results on one compound are cited in article PMC4875935 (Clinical Pharmacokinetics, 2015).

Values joined by “and” are separate entries in the source; they are usually repeats but may differ in a detail not shown here. Identical values can stand only once.

One series has as its system Candida albicans. To be noted: neutropenic mouse model of disseminated Candida albicans.
Assay in series [1]: not given
The source holds these as a separate data set.

Take `CC[C@H](C)C[C@H](C)CCCCCCCCC(=O)N[C@H]1C[C@@H](O)[C@@H](NCCN)NC(=O)[C@@H]2[C@@H](O)CCN2C(=O)[C@H]([C@H](O)CCN)NC(=O)[C@H]([C@H](O)[C@@H](O)c2ccc(O)cc2)NC(=O)[C@@H]2C[C@@H](O)CN2C(=O)[C@H]([C@@H](C)O)NC1=O` [caspofungin]: the “AUC/MIC ratio associated with a 1-log kill/24 h” value in the series with Candida albicans is reported as 865. In addition, in the series on C. albicans, the epidemiological cut-off value is recorded as 0.12 µg/mL and the “mode MIC” value is recorded as 0.03 µg/mL. The CL (earlier studies amongst other patient groups) was 0.40 L/h and 0.46 L/h. Under “typically observed for caspofungin”, the AUC24 typically observed was 100000 ng·h/mL. For the same compound, the protein bound in series [1] is reported as 92–97%. Further, in the series with invasive candidiasis (150 mg daily, patients with invasive candidiasis), the tolerability entry is “well-tolerated”. Also, the “clinical and mycological cure at the end of therapy” value in the series on invasive candidiasis (reported response rates in the literature) is given as 72–73%.
